Laboratory results published in patent US10905764B2, “Hydrated food” (Taiyokagaku Co., Ltd., priority 2005, dated 2021).

Legend:
[1] = Dissolution / water solubility; settings: in the hydrated food
mice = type: in vivo; settings: oral administration of theanine by 5 g/kg
From the text: Theanine used in the invention has a high security. […] Furthermore, theanine is known as a principal component of deliciousness of tea and used as a food additive for use as gustatory. An amount of theanine to be added is not limited under the Food Sanitation Law.

CCNC(=O)CC[C@H](N)C(=O)O [theanine, L-theanine]
upper limit of dissolution [1]: 250 mg/mL
mortality in acute toxicity test (mice): no mice died
